Laboratory results as given in ChEMBL document CHEMBL5728937, “Substituted tetrahydroquinolinone compounds as ROR gamma modulators” (2022).
pIC50: −log10 of the molar value.

Target: T1, Nuclear receptor ROR-gamma (Homo sapiens, UniProt P51449)
T1 sequence (P51449 whole entry): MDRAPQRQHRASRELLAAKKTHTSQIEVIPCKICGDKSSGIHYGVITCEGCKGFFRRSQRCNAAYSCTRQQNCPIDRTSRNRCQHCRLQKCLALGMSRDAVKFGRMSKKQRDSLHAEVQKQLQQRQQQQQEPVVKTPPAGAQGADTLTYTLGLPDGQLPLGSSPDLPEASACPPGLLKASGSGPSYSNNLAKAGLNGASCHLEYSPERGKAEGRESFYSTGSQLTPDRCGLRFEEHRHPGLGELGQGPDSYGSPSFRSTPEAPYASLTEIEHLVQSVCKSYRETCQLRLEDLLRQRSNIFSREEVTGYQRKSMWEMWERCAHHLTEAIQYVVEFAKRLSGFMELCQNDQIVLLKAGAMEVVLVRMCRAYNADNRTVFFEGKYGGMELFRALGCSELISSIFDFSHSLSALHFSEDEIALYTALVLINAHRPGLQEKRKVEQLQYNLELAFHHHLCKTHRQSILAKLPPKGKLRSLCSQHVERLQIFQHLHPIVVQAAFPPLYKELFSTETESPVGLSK
Experiment: Radio-Ligand Binding Assay: ROR gamma radioligand binding was performed using 3H 25-Hydroxycholesterol in a competitive displacement assay using dextran charcoal method. Using 5 nM 3H 25-Hydroxycholesterol with 300 ng RORγ LBD (in house expressed in E. coli) along with the compound were incubated in the binding buffer (50 mM HEPES, pH 7.5, 150 mM NaCl, 0.01% BSA and 5 mM MgCl2) for 30 min at room temperature. Then dextran-charcoal mixture (0.5% charcoal: 0.05% dextran) was used for separation and the supernatant was read on the Perkin Elmer Trilux Microbeta counter. Dose response curves were generated for 10 compound concentrations using GraphPad Prism software Version 5 (San Diego, Calif., USA) using non-linear regression curve fit for sigmoidal dose response (variable slope).

## CCS(=O)(=O)c1ccc(CC(=O)Nc2cc(C)c3c(n2)CCC(C)(c2ccc(OC)nn2)C3=O)cc1 (single isomer, unassigned)
  pIC50: < 6.52
